# Legend:
# Assay type in all cases: in vivo
# nematodes [1] = assay: Example II field trial: soil nematode population and root infection
# Procedure: (§1) Field trials were conducted in Florida where tomatoes are grown under a plastic mulch and an irrigation system, called “T” tapes, which is used to irrigate the crop under the plastic mulch. Design of the experiment were three rows of a standard methyl bromide applications as the smallest replication. Four such sets of three rows were used as replicated applications. There was a zero treatment. Methyl bromide gas used at a 400 pounds per acre basis as the control and the compositions A, B, C. and D were used at a 5 liters per acre basis. Composition A was injected through the “T” tape one day after methyl bromide was injected.
# (§2) The plants growing in the middle rows only of these three rows, were used to collect data. In the middle rows, 14 plants were randomly selected for measuring. The height of the plants were collected at 30 days. Starting at fruit harvest, fruits collected from these 14 plants were cumulatively added to give the total production data. At the end of harvest these plants were carefully dug up and roots carefully washed to weigh the total roots and also measure the degree of infection in the roots. Soil samples were also collected from the holes where the plants were dug up and analyzed for soil nematode population. Finally, all nut sedge plants that came through the plastic mulch in the entire 150-yard middle rows were counted as a “strike”, a degree of insufficient kill of the rhizomes.
# (§3) In this experiment, methyl bromide was applied at full dose of 400 pounds per acre of the gas and the treatments used 200 pounds of methyl bromide per acre alone and with 5 liters of composition A per acre, 100 pounds of methyl bromide alone and with composition A at 5 liters per acre, 50 pounds of methyl bromide with 5 liters of composition A and the last treatment of 5 liters of composition A per acre by itself. Tomatoes were planted 20 days after methyl bromide was injected under the plastic mulch. Composition A was injected through the “T” tape one day after methyl bromide was injected. The design of Experiment II was the same as in Experiment I, and the data collected were as in the Experiment I. The results of this experiment are shown in Table II.
# nut sedge rhizomes [2] = assay: Example II field trial: nut sedge strikes
# Procedure: as §1, §2, §3
# nut sedge rhizomes [3] = assay: Example 1 field trial in Florida: nut sedge strikes through plastic mulch; settings: methyl bromide 400 pounds per acre
# Procedure: as §1
# The plants growing in the middle rows only of these three rows, were used to collect data. In the middle rows, 14 plants were randomly selected for measuring. The height of the plants were collected at 30 days. Starting at fruit harvest, fruits collected from these 14 plants were cumulatively added to give the total production data. […] Soil samples were also collected from the holes where the plants were dug up and analyzed for soil nematode population. Finally, all nut sedge plants that came through the plastic mulch in the entire 150-yard middle rows were counted as a “strike”, a degree of insufficient kill of the rhizomes.
# nematodes [4] = assay: Example 1 field trial in Florida: soil nematode population and root infection; settings: methyl bromide 400 pounds per acre
# Procedure: as §1, §2
# tomatoes [5] = assay: Example II field trial, methyl bromide dose reduction with or without composition A: tomato growth and production
# Procedure: as §1, §2, §3
# tomatoes [6] = assay: Example 1 field trial in Florida, tomatoes under plastic mulch: plant height, production, root weight; settings: methyl bromide 400 pounds per acre, compositions 5 liters per acre
# Procedure: as §1, §2
# tomatoes [7] = assay: Example II field trial, methyl bromide dose reduction with or without composition A: tomato growth and production; settings: M.B. 50 lbs. alone
compound,measurement,setting,value
"CBr [Methyl Bromide, Methyl bromide]",Infection in Roots,nematodes [1]; M.B. 50 lbs. alone,high
same,Soil Nematode,nematodes [1]; M.B. 50 lbs. alone,"16,000"
same,Infection in Roots,nematodes [1]; M.B. 100 lbs. per acre alone,high
same,Soil Nematode,nematodes [1]; M.B. 100 lbs. per acre alone,2200/10 gr.
same,Infection in Roots,nematodes [1]; M.B. 200 lbs. per acre alone,slight
same,Soil Nematode,nematodes [1]; M.B. 200 lbs. per acre alone,1056/10 gr.
same,Infection in Roots,nematodes [1]; M.B. 400 lbs per acre,zero
same,Soil Nematode,nematodes [1]; M.B. 400 lbs per acre,zero
same,Live nut sedge in 150 yards,nut sedge rhizomes [2]; M.B. 50 lbs. alone,38 strikes
same,Live nut sedge in 150 yards,nut sedge rhizomes [2]; M.B. 100 lbs. per acre alone,28 strikes
same,Live nut sedge in 150 yards,nut sedge rhizomes [2]; M.B. 200 lbs. per acre alone,18 strikes
same,Live nut sedge in 150 yards,nut sedge rhizomes [2]; M.B. 400 lbs per acre,7 strikes
same,efficacy in controlling the weeds,nut sedge rhizomes [3]; Example 1 discussion,same efficacy in controlling the weeds as composition A
same,Live nut sedge in 150 yards,"nut sedge rhizomes [3]; shoots piercing plastic mulch in 150-yard middle rows, compositions 5 liters per acre",12/150 strikes″.
same,nematode control in the soil,nematodes [4]; Example 1 discussion,"superior to compositions A, B, C and D"
same,Soil Nematode,"nematodes [4]; soil at end of harvest, compositions 5 liters per acre",700/10 gr
same,Infection in Roots,"nematodes [4]; tomato roots, end of harvest, compositions 5 liters per acre",zero
same,Height at 30 Days,tomatoes [5]; M.B. 100 lbs. per acre alone,2.2 ft.
same,Production Per Plant,tomatoes [5]; M.B. 100 lbs. per acre alone,5.1 lbs.
same,Weight of Roots,tomatoes [5]; M.B. 100 lbs. per acre alone,90 gr.
same,Height at 30 Days,tomatoes [5]; M.B. 200 lbs. per acre alone,2.7 ft.
same,Production Per Plant,tomatoes [5]; M.B. 200 lbs. per acre alone,6.1 lbs.
same,Weight of Roots,tomatoes [5]; M.B. 200 lbs. per acre alone,120 gr.
same,Height at 30 Days,tomatoes [5]; M.B. 400 lbs per acre,3 ft.
same,Production Per Plant,tomatoes [5]; M.B. 400 lbs per acre,8.6 lbs.
same,Weight of Roots,tomatoes [5]; M.B. 400 lbs per acre,170 gr.
same,Weight of Roots,tomatoes [6]; end of harvest,165 gr.
same,Height at 30 Days,tomatoes [6],2.6 feet
same,Production Per Plant,tomatoes [6],16 lbs.
same,Height at 30 Days,tomatoes [7],2 ft.
same,Production Per Plant,tomatoes [7],4 lbs.
same,Weight of Roots,tomatoes [7],60
